Measured values taken from article PMC12790326, “Water Networks as Hydrophobic Recognition Motifs in Proteins” (Angewandte Chemie (International Ed. in English), 2025).

Legend:
[1] = biological target: T1, BRD4(1) (Homo sapiens, UniProt O60885); test: TR-FRET binding assay: displacement of tetra-acetylated histone H4 peptide; settings: for loss of efficacy/affinity with respect to 1: TR-FRET; for IC50: displacement of tetra-acetylated H4 peptide from BRD4(1), duplicate, best fit; for TR-FRET IC50 (fold change): fold change of IC50 relative to compound 1
T1 construct: encodes residues 44-168; His6 (TEV-cleavable); made in house; host or cells: Escherichia coli BL21 (DE3)
Text: Supplementary Information
Figure S3: Normalized TR-FRET assay showing dose-dependently displacement of a tetra-acetylated H4 peptide from Brd4(BD1) in the presence of compounds 2-5. IC50 values corresponding to best fit are reported inside each graph. […]
simultaneously. Each dot represents the average of two independent replicas, and the error bars correspond to their standard deviation.
The BRD4(1) construct was a kind donation of Dr. Alessio Ciulli (University of Dundee, UK) and it encodes residues 44-168. The cloned his-tagged BRD4(1) was expressed in Escherichia coli BL21 (DE3).
For biophysical assays, the protein puriﬁcation procedure consisted of immobilised metal ion aﬃnity chromatography (IMAC), followed by TEV cleavage of the histidine tag and a second IMAC chromatography. For crystallisation assays, the puriﬁcation protocol involved IMAC chromatography, followed by TEV cleavage and size-exclusion chromatography for crystallography. The expression and puriﬁcation has already been described.[25]
The Time-Resolved Fluorescence Resonance Energy Transfer (TR-FRET) binding assay used to measure the disruption of the interaction of BRD4(1) with [Lys(Ac)5/8/12/16]-Histone H4 (1-21)-GGK(Biotin) (Eurogentec) with compounds 1-5, was performed according to a previously described protocol.[26] The experiments were performed in 384-well black plates (NUNC) in a buﬀer composed of 50 mM HEPES, pH 7.4, 50 mM NaCl, 400 mM KF (Sigma), 0.5 mM CHAPS (Sigma), and 0.05% BSA (Sigma) in a ﬁnal volume of 100 μL. BRD4(1) (100 nM) protein domain was mixed with 200 nM of the biotin-labelled histone peptides and incubated for 30 min at room temperature. Molecules were prepared in 250 mM HEPES, pH 7.4, 250 mM NaCl, and 20% DMSO at a single concentration to give a ﬁnal concentration of 50 μM 1% DMSO in a total well volume of 100 μL and incubated for 1 h. Molecules showing inhibition were then screened in duplicate at several serial dilutions. Inhibition (%) at 50 μM was calculated with […]
where the negative control was run without BRD4(1) and inhibitor and positive control, without inhibitor to give the bottom signal and top signal, respectively. The protein−peptide complexes at equilibrium were then detected with 2 nM Eu3+ cryptate-conjugated streptavidin (CisBio) and 10 nM anti-his6-XL665 (CisBio). Titration of a known inhibitor ((+)-JQ1) was used as the control for each experiment. IC50 values were calculated by plotting the log [competitor/inhibitor] versus the mean normalised response data from a single experiment measured in duplicate and ﬁtting it to a four-parameter equation with variable Hill slope, using the GraphPad Prism software: […]
The plates were measured in a CLARIOStar reader (BMG Labtech) using the homogeneous time-resolved ﬂuorescence module (excitation, 337 nm with 200 ﬂashes; emission, 620 and 665 nm). The 665 nm/620 nm ratios were converted to % normalised TR-FRET ratio = top ratio signal as 100% and […]
bottom ratio signal as 0% to normalise experiments performed at diﬀerent days. Dose−response […]
2. Data Collection and Structure Solution.
X-ray diffraction data were collected on beamlines I03 and I04-1 at the Diamond Light Source. Data were integrated with XDS[27] and scaled with AIMLESS[28] as part of the XIA2 and autoPROC auto-processing pipelines.[29,30] Initial refinement and map calculation was carried out with DIMPLE[31] using a ligand-free version of BRD4(1) (PDB 3MXF[25]) as starting model. Ligand restraints were generated with ACEDRG[32] and GRADE.[33] Refinement and model building was performed with REFMAC[34] and COOT,[35] respectively. Structure validation was performed with MolProbity.[36] Final models and structure factors have been deposited with PDB accession codes 9QOB and 9QNV. Data […]
1) Protein and Ligand Preparation
Ligand 1 was co-crystallized in the previous study[9] with PDB code 6ZF9. The ligand pose was extracted from the PDB and missing hydrogens were added with MOE.[37] […]

[2] = system: PDE4D; test: PDE4D inhibition (literature IC50); format: biochemical; settings: gain from the phenyl ring of 3DE (82 µM to 270 nM)
[3] = system: PDE4D; design: method as in PMID 15685167; settings: with the phenyl ring; the analogue without it has 82 µM; read-out: affinity for PDE4D (IC50); cited from earlier work

Compound	loss of efficacy/affinity with respect to 1 [1] [fold]	IC50 [1] [µM]	TR-FRET IC50 (fold change) [1] [x]	ΔΔG bind [2] [kJ/mol]	IC50 [3] [µM]
Cc1nnc2scc(-c3ccccc3)n12 [Compound 2]	2	54	2		
CCOC(=O)c1c(C)nn(-c2ccccc2)c1C [Compound 3DE]				14.2	0.27
COCc1nnc2scc(-c3ccccc3)n12 [Compound 3]	3	85	3.3		
OCc1nnc2scc(-c3ccccc3)n12 [Compound 4]	2.5	65	2.5		
